# Measured values taken from patent US6218167A, “Stable biocatalysts for ester hydrolysis” (ThermoGen, Inc., priority 1998, dated 2001).
# Key:
# [1] = tested on: Thermus sp. T351 esterase E100; test: Inhibition by reaction components of p-nitrophenylproprionate hydrolysis by E100; format: biochemical; settings: no concentration stated
# Method: Esterase activity is measured by monitoring the hydrolysis of p-nitrophenylproprionate (pNP), or in some cases MUB. Each substrate is dissolved in acetonitrile and added to the reaction mixture (100 μM final concentration) which contain 50 mM Tris HCl pH 8.5 adjusted for temperature dependent pH variation. Reactions are thermally equilibrated at 37° C. for 5 minutes prior to initiation of the reaction by addition of 10 μL of enzyme sample, while control reactions substituted equivalent amounts of BSA. The reaction is monitored spectrophotometrically at 405 nm ε=17 mM^-1 cm^-1 for pNP and 360 nm ε=7.9 mM^-1 cm^-1 for MUB.
# The rates of enzyme catalyzed hydrolysis are corrected for the spontaneous hydrolysis of the substrate. Protein concentrations are determined by either the absorbance at 280 nm or by Lowery assay. Crude activity is determined by a calorimetric assay based on the hydrolysis of 5-bromo-4-chloro-3-indoyl esters suspended in a 0.7% agar matrix on microtiter plates. A 0.1 mg/ml solution of the indolyl derivative is dissolved in a minimal volume of acetonitrile and added to a warm solution of 0.7% agar containing 0.1M phosphate buffer pH 7.5. 10 μL of this solution is distributed to microtiter plates which, when cooled, could be used with as much as 100 μL of enzyme sample and incubated at temperatures from ambient to >65° C. […]
# [2] = biological target: T1, Thermus sp. T351 esterase E101, SEQ ID NO.:8 (Thermus filiformis, UniProt A0A0A2WSC9); test: biochemical; format: biochemical
# T1 construct: T351; native about 135 kD
# T1 sequence (A0A0A2WSC9 entry or part of it A175T/N178S/T194S/A197P/K279Q/P281S): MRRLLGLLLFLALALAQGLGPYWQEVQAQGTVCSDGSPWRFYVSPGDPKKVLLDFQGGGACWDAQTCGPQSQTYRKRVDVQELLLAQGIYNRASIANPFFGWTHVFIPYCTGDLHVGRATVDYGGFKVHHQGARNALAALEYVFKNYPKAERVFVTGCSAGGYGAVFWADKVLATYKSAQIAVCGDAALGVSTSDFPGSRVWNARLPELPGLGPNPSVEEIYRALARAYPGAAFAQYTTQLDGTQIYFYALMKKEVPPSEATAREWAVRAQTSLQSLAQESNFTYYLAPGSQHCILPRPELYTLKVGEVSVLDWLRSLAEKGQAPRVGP
# From the text: The specific activity of the enzyme is ten fold greater than observed for E100 with 4-methyl-umbelliferyl butyrate (MUB) as the substrate. E101 is inhibited by PMSF but is insensitive to metal ions or metal ion chelators. […] Table 5 outlines the inhibitory effect of various substances on E101 activity.
# Reaction conditions are those described in the general experimental above
smiles,measurement,setting,value
Cc1ccc(S(=O)(=O)F)cc1 [tosyl fluoride],Inhibition of E100 (in words),[1],effectively inhibited
"OCCS [BME, β-mercaptoethanol]",activity at 10000 µM,[2]; read-out: Relative Rate,96%
O=C(O)CN(CCN(CC(=O)O)CC(=O)O)CC(=O)O [EDTA],activity at 1000 µM,[2]; read-out: Relative Rate,93%
OC(CS)C(O)CS (stereo not drawn) [DTT],activity at 1000 µM,[2]; read-out: Relative Rate,98%
O=S(=O)(F)Cc1ccccc1 [PMSF],Relative Rate,"[2]; additive 0.1 mM, None = 100%, substrate p-nitrophenylproprionate",0%
same,Inhibition of E101 (in words),[2]; no concentration stated,inhibited
